Entries after “also recorded” stand apart in the source; their conditions may differ.
Columns and labels:
Type in all cases: cell-based
[1] = system: cultured human corneal endothelial cell; assay: Ki-67 immunostaining and cell morphology of cultured human corneal endothelial cell treated with Hedgehog signal modulators; conditions: primary human corneal endothelial cell, 2 μM cyclopamine, 3 days; for Ki-67 expression (cell proliferation) as compared with a control: 100 ng/ml rhShh, 2 μM purmorphamine
Protocol: (§1) After 3 days, immunostain of GPR49/LGR5 and Ki-67 was performed. In addition, RNA of a corneal endothelial cell incubated under the same conditions was extracted, and the amount of expression of mRNA was measured by real time PCR.

GPR49/LGR5 expression [2] = assay: GPR49/LGR5 expression in human corneal tissue treated with Hedgehog signal modulators; conditions: 100 ng/ml rhShh, 10 μM purmorphamine, 10 μM cyclopamine, 3 days
Source text: (§2) A corneal tissue was embedded with OCT compound (catalog No.: 4583; Sakura Finetek, Tokyo, Japan), and frozen in liquid nitrogen to prepare a frozen corneal tissue section. The frozen block was sliced to 8 μm, applied on a silane-coating slide, and air-dried. For preparing the whole tissue section, a Descemet's membrane containing a corneal endothelial cell was peeled from a corneal tissue, allowed to stand in ice-cooled 100% acetone for 30 seconds, applied on a silane-coating slide, and air-dried. As a cultured corneal endothelial cell, a cell cultured on a LabTek 8-well plastic chamber slide was used. Ice-cooled 100% acetone was added to a corneal tissue and the cultured cell, the resultant was allowed to stand at 4° C. for 15 minutes to fix the cell. After shaking and washing with 0.15% TritonX/PBS-, 1% bovine serum albumin (catalog No.: A4503BSA; Sigma-Aldrich, St. Louis, Mo.) was added, and allowed to stand at room temperature for 30 minutes to perform blocking. A primary antibody was diluted with 1% BSA, and incubated at room temperature for 1 hour. As a primary antibody to be used, anti-rabbit GPR49/LGR5 (catalog No.: GTX71143; 1: 200; GeneTex Inc., San Antonio, Tex.), anti-rabbit Nestin (catalog No.: PRB-570C; 1: 200; COVANCE, Berkeley, Calif.), anti-mouse ABCG2 (catalog No.: NC_236; 1: 2; Kamiya biomedical CO., Seattle, Wash. USA), anti-mouse Ki-67 (catalog No.: 556003; 1: 200 BD Pharmingen™ NJ, USA), anti-rabbit Na^+/K^+ ATPase (catalog No.: A132; 1: 100; Zymed), and anti-rabbit ZO1 (Zymed Laboratries Inc., South San Francisco, Calif.) were used. The resultant was washed with 0.15% Triton/PBS- twice, and PBS- once.
For extracting RNA from a corneal tissue and a cultured cell, RNeasy Mini Kit (catalog No.: 74106; QIAGEN, Valencia, Calif.) was used. Added was 1 μl of OligodT Primer (catalog No.: 18418-020; Invitrogen) per 1 μg of the extracted RNA, and the resultant was incubated at 70° C. for 2 minutes, and immediately ice-cooled. […] The resulting data were analyzed by ABI PRISM (registered trademark) 7000 Sequence Detection System. […]

GPR49/LGR5 expression [3] = assay: GPR49/LGR5 expression in cultured human corneal endothelial cell treated with Hedgehog signal modulators; conditions: primary human corneal endothelial cell; 100 ng/ml rhShh, 2 μM purmorphamine, 2 μM cyclopamine; 3 days
Protocol: as §1

[4] = system: human corneal endothelial cell; assay: Ki67 immunostaining of human corneal endothelial cells incubated with RSPO1 to 4
Source text: as §2
A secondary antibody was diluted with a mixed solution of 1% BSA and 0.15% TrironX/PBS-, and incubated at room temperature for 30 minutes. As a secondary antibody to be used, Alexa™ Fluor 488-labeled (conjugated) goat anti-rabbit IgG (catalog No.: A11034; 1: 1500; Molecular Probe-Invitrogen) and Alexa™ Fluor 488-labeled (conjugated) goat anti-mouse IgG (catalog No.: A11029; 1: 1500; Molecular Probe-Invitrogen) were used. The secondary antibody was shaken and washed with 0.15% Triton/PBS- twice, and PBS- once, subjected to nuclear staining with propidium iodide (catalog No.: SP29004-41; PI; Nacalai Tesque, Inc. Kyoto, Japan), and embedded while covered with a cover glass.
In order to investigate a relationship between R-sporadin 1 (RSPO1), R-spondin 2 (RSPO2), R-spondin 3 (RSPO3), or R-spondin 4 (RSPO4) and differentiation of a corneal endothelial cell, the relationship was studied using RSPO1. Reagents used are as follows. • RSPO1 R&D systems catalog No.: 4645-RS • RSPO2 R&D systems catalog No.: 3266-RS • RSPO3 R&D systems catalog No.: 3500-RS • RSPO4 R&D systems catalog No.: 4575-RS
Then, for the purpose of investigating the influence of RSPO on cell proliferation, RSPO1 to 4 were incubated into a human corneal endothelial cell under conditions of 37° C. and 5% CO2 for 1 day. Thereafter, Ki-67 being a cell proliferation marker was immunostained.

## CC1=C2C[C@H]3[C@@H](CC=C4C[C@@H](O)CC[C@@]43C)[C@@H]2CC[C@]12O[C@@H]1C[C@H](C)CN[C@H]1[C@H]2C [cyclopamine]
[1]
  Ki-67 expression (cell proliferation) as compared with a control: suppression of cell proliferation; also recorded: not upregulated
  cell morphology: abnormality of cell morphology; also recorded: could not maintain a normal hexagonal form
GPR49/LGR5 expression [2]
  expression of GPR49/LGR5 as compared with a control (immunostaining; same result at the mRNA expression level): clear expression suppression

## c1ccc2c(Oc3nc(Nc4ccc(N5CCOCC5)cc4)c4ncn(C5CCCCC5)c4n3)cccc2c1 [purmorphamine, N-(4-morpholinophenyl)-2-(1-naphthyloxy)-9-cyclohexyl-9H-purine-6-amine]
[1]
  Ki-67 expression (cell proliferation) as compared with a control: elevated; also recorded: upregulated
GPR49/LGR5 expression [2]
  expression of GPR49/LGR5 as compared with a control (immunostaining; same result at the mRNA expression level): remarkable increase (upregulation)

## rhShh: recombinant human Sonic hedgehog, ligand of the Hedgehog pathway binding to Ptch1
[1]
  Ki-67 expression (cell proliferation) as compared with a control: elevated
[1]; listed as SHH
  Ki-67 expression (cell proliferation) as compared with a control: upregulated
GPR49/LGR5 expression [3]
  cell expressing GPR49/LGR5: confirmed
GPR49/LGR5 expression [2]
  expression of GPR49/LGR5 as compared with a control (immunostaining; same result at the mRNA expression level): remarkable increase (upregulation)

B1: RSPO4: human recombinant R-spondin 4, R&D systems catalog No. 4575-RS (protein, UniProt Q2I0M5 20-234, looked up)
R-spondin-4: LNRRKKQVGTGLGGNCTGCIICSEENGCSTCQQRLFLFIRREGIRQYGKCLHDCPPGYFGIRGQEVNRCKKCGATCESCFSQDFCIRCKRQFYLYKGKCLPTCPPGTLAHQNTRECQGECELGPWGGWSPCTHNGKTCGSAWGLESRVREAGRAGHEEAATCQVLSESRKCPIQRPCPGERSPGQKKGRKDRRPRKDRKLDRRLDVRPRQPGLQP
[4]; RSPO4 50 ng/ml, 500 ng/ml (FIG. 14)
  Ki67-positive cell rate as compared with a control: slightly increased

B2: RSPO3: human recombinant R-spondin 3, R&D systems catalog No. 3500-RS (protein, listed as Homo sapiens)
chain: MHLRLISWLFIILNFMEYIGSQNASRGRRQRRMHPNVSQGCQGGCATCSDYNGCLSCKPRLFFALERIGMKQIGVCLSSCPSGYYGTRYPDINKCTKCKADCDTCFNKNFCTKCKSGFYLHLGKCLDNCPEGLEANNHTMECVSIVHCEVSEWNPWSPCTKKGKTCGFKRGTETRVREIIQHPSAKGNLCPPTNETRKCTVQRKKCQKGERGKKGRERKRKKPNKGESKEAIPDSKSLESSKEIPEQRENKQQQKKRKVQDKQKSVSVSTVH
[4]; RSPO3 50 ng/ml, 200 ng/ml (FIG. 13)
  Ki67-positive cell rate as compared with a control: slightly increased

B3: RSPO2: human recombinant R-spondin 2, R&D systems catalog No. 3266-RS (protein, listed as Homo sapiens)
chain: MQFRLFSFALIILNCMDYSHCQGNRWRRSKRASYVSNPICKGCLSCSKDNGCSRCQQKLFFFLRREGMRQYGECLHSCPSGYYGHRAPDMNRCARCRIENCDSCFSKDFCTKCKVGFYLHRGRCFDECPDGFAPLEETMECVEGCEVGHWSEWGTCSRNNRTCGFKWGLETRTRQIVKKPVKDTILCPTIAESRRCKMTMRHCPGGKRTPKAKEKRNKKKKRKLIERAQEQHSVFLATDRANQ
[4]; RSPO2 50 ng/ml, 100 ng/ml (FIG. 12)
  Ki67-positive cell rate as compared with a control: slightly increased

Reference: US9616101B2, “Differentiation marker and differentiation control of eye cell” (Kyoto Prefectural Public University Corporation, priority 2012, dated 2017)
